Data published in publication PMC7053805 (Toxicology in vitro : an international journal published in …, 2019).
Like-named read-outs stand apart in the source and are kept apart here.

Key:
[1] = Chip-to-human extrapolation; details: for predicted renal clearance/GFR ratio from the chip: Chip+Model, ETS=0
[2] = system: Primary human renal proximal tubule epithelial cells (RPTECs); details: for total amount of cadmium assumed accumulated in RPTECs: estimated from measured uptake
[3] = Rapid equilibrium dialysis; details: for protein binding in the culture media: serum-supplemented media, rapid equilibrium dialysis
[4] = cited from earlier work
[5] = smelter workers; ref Ellis et al. (1981); cited from earlier work
[6] = human, indicated by in vivo renal clearance data; ref Contrepois et al., 1985; cited from earlier work
[7] = human; cited from earlier work
[8] = in vitro; details: human
[9] = serum
[10] = in vitro
[11] = system: canine renal tubule cells; details: ref MacKay et al., 1998, cited from earlier work
[12] = effluent compared against stock solutions
[13] = kidney tubule chip, adjusted for non-specific binding, both concentrations

## [Cl][Cd][Cl] [Cadmium, cadmium chloride]
[1]; cadmium 0.05 μM (free 0.0145 μM)
  predicted renal clearance/GFR ratio from the chip: 0.14±0.05
[1]; cadmium 0.5 μM (free 0.209 μM)
  predicted renal clearance/GFR ratio from the chip: 0.39±0.17
[1]; from in vivo modeled CLR/GFR ratio 0.26 (cadmium, lower concentration)
  back-calculated Cu/Cf in the chip: 68%
[1]; from in vivo modeled CLR/GFR ratio 0.29 (cadmium, higher concentration)
  back-calculated Cu/Cf in the chip: 71%
[2]; after 22 days at 0.05 μM
  total amount of cadmium assumed accumulated in RPTECs: 3.2 µg/g
[2]; after 22 days at 0.5 μM
  total amount of cadmium assumed accumulated in RPTECs: 16.5 µg/g
[2]; [12]
  uptake/reabsorption within the kidney tubule chip: uptake
[2]; [13]
  reabsorption (loss) from adjusted Cout/Cin: 24-43%
[3]; binding to serum proteins in culture media
  fraction protein-bound in the culture media: up to 71%
[4]; general population (≥1 year of age) in the USA, ref Agency for Toxic Substances and Disease Registry
  geometric blood level: ~ 0.002 μM
[4]; general population, Nigeria, ref Alli, 2015
  Cmax: ~100 nM
[4]; human occupational, Nigeria, ref Alli, 2015
  Cmax: ~1000 nM
[5]
  concentrations in human kidney: up to 400 μg/g

## N.N.[Cl][Pt][Cl] [Cisplatin, cisplatin]
[2]; cell-seeded chip, at equilibrium
  recovery from effluent samples: ~100%
[2]; [12]
  uptake/reabsorption within the kidney tubule chip: little uptake
[4]; human, reported range, ref Verschraagen et al., 2003
  Cmax: 1400 to 13900 nM

## CN1CC(=O)NC1=N [Creatinine, creatinine]
[2]; human
  reabsorption (loss) from adjusted Cout/Cin: 0-5%
[3]
  fraction unbound: 0.934 ± 0.06
  protein binding in the culture media: minimal protein binding

## CNC(C)C1CCC(N)C(OC2C(N)CC(N)C(OC3OCC(C)(O)C(NC)C3O)C2O)O1 (stereo not drawn) [Gentamicin, gentamicin]
[2]
  uptake/reabsorption within the kidney tubule chip: little uptake
[2]; human
  reabsorption (loss) from adjusted Cout/Cin: 0-5%
[2]; tissue chip, on average, 200 and 600 μM
  net uptake by the RPTECs: < 0.5%
[6]
  re-absorption in vivo: around 20%
[7]
  serum protein binding: no serum protein binding
[8]
  recovery: ~100%
[4]; human, in vivo
  Cmax: ~50000 nM
[4]; in vivo
  serum concentrations: 5300 ± 1300 ng/mL
[9]
  protein binding in the culture media: minimal protein binding
[10]; Free fraction in cell culture media
  fraction unbound: 0.897 ± 0.005

## O=C(O)C(F)(F)C(F)(F)C(F)(F)C(F)(F)C(F)(F)C(F)(F)C(F)(F)F [PFOA, perfluorooctanoic acid]
[2]; [12]
  uptake/reabsorption within the kidney tubule chip: uptake
[2]; [13]
  reabsorption (loss) from adjusted Cout/Cin: 3-13%
[3]
  protein binding in the culture media: minimal protein binding
[4]; occupationally exposed subjects, ref ATSDR, 2018
  blood levels: ≤ 24200 nM
[10]
  fraction unbound: 0.986 ± 0.149

## inulin
[11]; bioreactor with confluent cells
  recovery in luminal effluent: ≥ 98.9%
[11]; blank devices
  recovery in luminal effluent: ≤ 7.4%
